# System: H1N1 (influenza A/New Caledonia/20/99)
# Assay: microbe, parasite or virus in culture
# Type: cell-based
# Details: not given
row,SMILES,IC50
1,"O=C(Nc1ccc(Cl)cc1)c1c(NC(=O)C2CCC(C(=O)O)CC2)sc2c1CCC2 (single isomer, unassigned) [Compound 98, 4-[[3-[(4-chlorophenyl)carbamoyl]-5,6-dihydro-4H-cyclopenta[b]thiophen-2-yl]carbamoyl]cyclohexanecarboxylic acid]",15.9 µM

# Same assay, conditions: Influenza A virus, H1N1, A549, 48 h
row,SMILES,IC50
1,"Cc1ccc(NC(=O)c2c(NC(=O)C3CC=CCC3C(=O)O)sc3c2CCCC3)cc1 (stereo not shown) [Compound 60, 6-[[3-(p-Tolylcarbamoyl)-4,5,6,7-tetrahydrobenzothiophen-2-yl]carbamoyl]cyclohex-3-ene-1-carboxylic acid]",54.8 µM
2,"O=C(Nc1ccc(Cl)cc1)c1c(N2C(=O)C3CCCCC3C2=O)sc2c1CCC2 (stereo not shown) [Compound 54, N-(4-Chlorophenyl)-2-(1,3-dioxo-3a,4,5,6,7,7a-hexahydroisoindol-2-yl)-5,6-dihydro-4H-cyclopenta[b]thiophene-3-carboxamide]",5.98 µM
3,"O=C(Nc1cccc(C(F)(F)F)c1)c1c(NC(=O)C2CCCCC2C(=O)O)sc2c1CCC2 (stereo not shown) [Compound 77, 2-[[3-[[3-(Trifluoromethyl)phenyl]carbamoyl]-5,6-dihydro-4H-cyclopenta[b]thiophen-2-yl]carbamoyl]cyclohexanecarboxylic acid]",6.78 µM
4,"O=C(Nc1ccc(Cl)cc1)c1c(NC(=O)C2C3CCC(O3)C2C(=O)O)sc2c1CCC2 (stereo not shown) [Compound 51, 2-[[3-[(4-Chlorophenyl)carbamoyl]-5,6-dihydro-4H-cyclopenta[b]thiophen-2-yl]carbamoyl]-7-oxabicyclo[2.2.1]heptane-3-carboxylic acid]",29.7 µM
5,"CS(=O)(=O)N1CCOC(C(=O)Nc2sc3c(c2C(=O)Nc2ccc(Cl)cc2)CCC3)C1 (stereo not shown) [Compound 86, N-[3-[(4-chlorophenyl)carbamoyl]-5,6-dihydro-4H-cyclopenta[b]thiophen-2-yl]-4-methylsulfonyl-morpholine-2-carboxamide]",6.3 µM
6,"O=C(Nc1ccc(Cl)cc1)c1c(NC(=O)C2CCCCC2C(=O)O)sc2c1CSC2 (stereo not shown) [Compound 38, 2-[[3-[(4-Chlorophenyl)carbamoyl]-4,6-dihydrothieno[3,4-b]thiophen-2-yl]carbamoyl]cyclohexanecarboxylic acid]",6.44 µM
7,"Cc1ccc(NC(=O)c2c(NC(=O)C3CCCCC3C(=O)O)sc3c2CCC3)cc1 (stereo not shown) [Compound 66, 2-[[3-(p-Tolylcarbamoyl)-5,6-dihydro-4H-cyclopenta[b]thiophen-2-yl]carbamoyl]cyclohexanecarboxylic acid]",11.7 µM
8,"O=C(NCc1ccccc1)c1c(NC(=O)C2CCCCC2C(=O)O)sc2c1CCC2 (stereo not shown) [Compound 63, 2-[[3-(Benzylcarbamoyl)-5,6-dihydro-4H-cyclopenta[b]thiophen-2-yl]carbamoyl]cyclohexanecarboxylic acid]",21.4 µM
9,"CCc1c(C)sc(NC(=O)C2CCCCC2C(=O)O)c1C(=O)Nc1cccc(Cl)c1 (stereo not shown) [Compound 70, 2-[[3-[(3-Chlorophenyl)carbamoyl]-4-ethyl-5-methyl-2-thienyl]carbamoyl]cyclohexanecarboxylic acid]",14.7 µM
10,"Cc1cccc(NC(=O)c2c(NC(=O)C3CCCCC3C(=O)O)sc3c2CCC3)c1 (stereo not shown) [Compound 58, 2-[[3-(m-Tolylcarbamoyl)-5,6-dihydro-4H-cyclopenta[b]thiophen-2-yl]carbamoyl]cyclohexanecarboxylic acid]",27.6 µM
11,"Cc1cccc(NC(=O)c2c(NC(=O)C3CC=CCC3C(=O)O)sc3c2CCCC3)c1 (stereo not shown) [Compound 68, 6-[[3-(m-Tolylcarbamoyl)-4,5,6,7-tetrahydrobenzothiophen-2-yl]carbamoyl]cyclohex-3-ene-1-carboxylic acid]",11.7 µM
12,"CCCCCNC(=O)c1c(NC(=O)C2CCCCC2C(=O)O)sc2c1CCC2 (stereo not shown) [Compound 22, 2-[[3-(pentylcarbamoyl)-5,6-dihydro-4H-cyclopenta[b]thiophen-2-yl]carbamoyl]cyclohexanecarboxylic acid]",20.3 µM
13,"CC(C)(C)C1CCc2c(sc(NC(=O)[C@H]3CCCC[C@H]3C(=O)O)c2C(=O)Nc2ccc(Cl)cc2)C1 (stereo in doubt) [Compound 79, 2-[[6-tert-butyl-3-[(4-chlorophenyl)carbamoyl]-4,5,6,7-tetrahydrobenzothiophen-2-yl]carbamoyl]cyclohexanecarboxylic acid]",1.85 µM
14,"O=C(Nc1ccc(Cl)cc1)c1c(NC(=O)C2CCCCC2C(=O)O)sc2c1CCS2 (stereo not shown) [Compound 40, 2-[[4-[(4-Chlorophenyl)carbamoyl]-2,3-dihydrothieno[2,3-b]thiophen-5-yl]carbamoyl] cyclohexanecarboxylic acid]",7.35 µM
15,"NC(=O)N1CCOCC1C(=O)Nc1sc2c(c1C(=O)Nc1ccc(Cl)cc1)CCC2 (stereo not shown) [Compound 82, N3-[3-[(4-chlorophenyl)carbamoyl]-5,6-dihydro-4H-cyclopenta[b]thiophen-2-yl]morpholine-3,4-dicarboxamide]",4.4 µM
16,"Cc1cccc(NC(=O)c2c(NC(=O)C3CCCCC3C(=O)O)sc3c2CCCC3)c1 (stereo not shown) [Compound 69, 2-[[3-(m-Tolylcarbamoyl)-4,5,6,7-tetrahydrobenzothiophen-2-yl]carbamoyl]cyclohexanecarboxylic acid]",13.9 µM
17,"CC(C)c1cc(C(=O)Nc2ccccc2)c(NC(=O)C2CCCCC2C(=O)O)s1 (stereo not shown) [Compound 72, 2-[[5-Isopropyl-3-(phenylcarbamoyl)-2-thienyl]carbamoyl]cyclohexanecarboxylic acid]",9.92 µM

row,SMILES,IC50
1,"NS(=O)(=O)N1CCOC(C(=O)Nc2sc3c(c2C(=O)Nc2ccc(Cl)cc2)CCC3)C1 (stereo not shown) [Compound 87, N-[3-[(4-chlorophenyl)carbamoyl]-5,6-dihydro-4H-cyclopenta[b]thiophen-2-yl]-4-sulfamoyl-morpholine-2-carboxamide]",6.75 µM
2,"CC(=O)c1cccc(NC(=O)c2c(NC(=O)C3CCCCC3C(=O)O)sc3c2CCC3)c1 (stereo not shown) [Compound 12, 2-[[3-[(3-Acetylphenyl)carbamoyl]-5,6-dihydro-4H-cyclopenta[b]thiophen-2-yl]carbamoyl]cyclohexanecarboxylic acid]",21.2 µM
3,"CS(=O)(=O)c1ccc(NC(=O)c2c(NC(=O)C3CCCCC3C(=O)O)sc3c2CCC3)cc1 (stereo not shown) [Compound 31, 2-[[3-[(4-Methylsulfonylphenyl)carbamoyl]-5,6-dihydro-4H-cyclopenta[b]thiophen-2-yl]carbamoyl]cyclohexanecarboxylic acid]",27.3 µM
4,"O=C(Nc1ccc(Cl)cc1)c1c(NC(=O)N2CCCCC2C(=O)O)sc2c1CCC2 (stereo not shown) [Compound 89, 1-[[3-[(4-chlorophenyl)carbamoyl]-5,6-dihydro-4H-cyclopenta[b]thiophen-2-yl]carbamoyl]piperidine-2-carboxylic acid]",8.8 µM
5,"O=C(NC1CCC(F)(F)CC1)c1c(NC(=O)C2CCCCC2C(=O)O)sc2c1CCC2 (stereo not shown) [Compound 18, 2-[[3-[(4,4-Difluorocyclohexyl)carbamoyl]-5,6-dihydro-4H-cyclopenta[b]thiophen-2-yl]carbamoyl]cyclohexanecarboxylic acid]",33 µM
6,"CCc1c(C)sc(NC(=O)C2CCCCC2C(=O)O)c1C(=O)Nc1ccccc1 (stereo not shown) [Compound 73, 2-[[4-Ethyl-5-methyl-3-(phenylcarbamoyl)-2-thienyl]carbamoyl]cyclohexanecarboxylic acid]",24.6 µM
7,"O=C1CC(C(=O)Nc2sc3c(c2C(=O)Nc2ccc(Cl)cc2)CCC3)CCN1 (stereo not shown) [Compound 101, N-[3-[(4-chlorophenyl)carbamoyl]-5,6-dihydro-4H-cyclopenta[b]thiophen-2-yl]-2-oxo-piperidine-4-carboxamide]",19 µM
8,"CC1OCc2sc(NC(=O)C3CCCCC3C(=O)O)c(C(=O)Nc3ccc(Cl)cc3)c21 (stereo not shown) [Compound 39, 2-[[3-[(4-Chlorophenyl)carbamoyl]-4-methyl-4,6-dihydrothieno[2,3-c]furan-2-yl]carbamoyl]cyclohexanecarboxylic acid]",53.5 µM
9,"O=C(O)c1ccccc1C(=O)Nc1sc2c(c1C(=O)Nc1ccc(Cl)cc1)CCC2 [Compound 44, 2-[[3-[(4-Chlorophenyl)carbamoyl]-5,6-dihydro-4H-cyclopenta[b]thiophen-2-yl]carbamoyl]benzoic acid]",21.6 µM
10,"N#Cc1ccc(NC(=O)c2c(NC(=O)C3CCCCC3C(=O)O)sc3c2CCC3)cc1 (stereo not shown) [Compound 28, 2-[[3-[(4-Cyanophenyl)carbamoyl]-5,6-dihydro-4H-cyclopenta[b]thiophen-2-yl]carbamoyl]cyclohexanecarboxylic acid]",15.9 µM
11,"O=C(Nc1ccc(Cl)cc1)c1c(NC(=O)C2CC=CCC2C(=O)O)sc2c1CCC2 (stereo not shown) [Compound 48, 6-[[3-[(4-Chlorophenyl)carbamoyl]-5,6-dihydro-4H-cyclopenta[b]thiophen-2-yl]carbamoyl]cyclohex-3-ene-1-carboxylic acid]",11.2 µM
12,"O=C(Nc1ccc(Cl)cc1)c1c(NC(=O)C2CCCCC2CO)sc2c1CCC2 (stereo not shown) [Compound 56, N-(4-Chlorophenyl)-2-[[2-(hydroxymethyl)cyclohexanecarbonyl]amino]-5,6-dihydro-4H-cyclopenta[b]thiophene-3-carboxamide]",24 µM
13,"CC1CCC(NC(=O)c2c(NC(=O)C3CCCCC3C(=O)O)sc3c2CCC3)CC1 (stereo not shown) [Compound 35, 2-[[3-[(4-Methylcyclohexyl)carbamoyl]-5,6-dihydro-4H-cyclopenta[b]thiophen-2-yl]carbamoyl]cyclohexanecarboxylic acid]",12.4 µM
14,"COc1ccc(NC(=O)c2c(NC(=O)C3CCCCC3C(=O)O)sc3c2CCC3)cc1 (stereo not shown) [Compound 76, 2-[[3-[(4-Methoxyphenyl)carbamoyl]-5,6-dihydro-4H-cyclopenta[b]thiophen-2-yl]carbamoyl]cyclohexanecarboxylic acid]",14.1 µM
15,"O=C(Nc1ccc(Cl)cc1)c1ccsc1NC(=O)C1C2CCC(CC2)C1C(=O)O (stereo not shown) [Compound 71, 2-[[3-[(4-Chlorophenyl)carbamoyl]-2-thienyl]carbamoyl]bicyclo[2.2.2]octane-3-carboxylic acid]",12.2 µM
16,"O=C(Nc1ccc(CO)cc1)c1c(NC(=O)C2CCCCC2C(=O)O)sc2c1CCC2 (stereo not shown) [Compound 19, 2-[[3-[[4-(Hydroxymethyl)phenyl]carbamoyl]-5,6-dihydro-4H-cyclopenta[b]thiophen-2-yl]carbamoyl]cyclohexanecarboxylic acid]",30.8 µM

# Source: patent US11279683B2, “Thiophene derivatives as antiviral agents” (ENYO PHARMA, priority 2016, dated 2022)
